{"source": "paper PMC6084503", "about": "“Pyrrolo[3,2-c]pyridine derivatives with potential inhibitory effect against FMS kinase: in vitro biological studies” (Journal of Enzyme Inhibition and Medicinal Chemistry, 2018)", "key": {"HS 27 fibroblasts": {"tested_on": "HS 27 fibroblasts", "test": "Antiproliferative screening against HS 27 fibroblasts", "format": "cell-based", "conditions": "HS-27 Fibroblasts (normal cells), concentration producing 50% inhibition", "method": "It was conducted following the previously reported protocol.\n(§1) Due to over-expression of FMS kinase in certain types of tumours such as ovarian, prostate, and breast[5–7] cancers, we decided to test the antiproliferative activity of compound 1r against a panel of six ovarian, two prostate, and five breast cancer cell lines. It was also tested against HS 27 fibroblasts in order to investigate the selectivity indexes. The results were compared with those of KIST101029 as a reference standard."}, "FMS kinase [1]": {"biological_target": "T1, FMS kinase (Homo sapiens, UniProt P07333)", "T1 construct": "purchased Reaction Biology Corp", "T1 sequence (P07333 20-972)": "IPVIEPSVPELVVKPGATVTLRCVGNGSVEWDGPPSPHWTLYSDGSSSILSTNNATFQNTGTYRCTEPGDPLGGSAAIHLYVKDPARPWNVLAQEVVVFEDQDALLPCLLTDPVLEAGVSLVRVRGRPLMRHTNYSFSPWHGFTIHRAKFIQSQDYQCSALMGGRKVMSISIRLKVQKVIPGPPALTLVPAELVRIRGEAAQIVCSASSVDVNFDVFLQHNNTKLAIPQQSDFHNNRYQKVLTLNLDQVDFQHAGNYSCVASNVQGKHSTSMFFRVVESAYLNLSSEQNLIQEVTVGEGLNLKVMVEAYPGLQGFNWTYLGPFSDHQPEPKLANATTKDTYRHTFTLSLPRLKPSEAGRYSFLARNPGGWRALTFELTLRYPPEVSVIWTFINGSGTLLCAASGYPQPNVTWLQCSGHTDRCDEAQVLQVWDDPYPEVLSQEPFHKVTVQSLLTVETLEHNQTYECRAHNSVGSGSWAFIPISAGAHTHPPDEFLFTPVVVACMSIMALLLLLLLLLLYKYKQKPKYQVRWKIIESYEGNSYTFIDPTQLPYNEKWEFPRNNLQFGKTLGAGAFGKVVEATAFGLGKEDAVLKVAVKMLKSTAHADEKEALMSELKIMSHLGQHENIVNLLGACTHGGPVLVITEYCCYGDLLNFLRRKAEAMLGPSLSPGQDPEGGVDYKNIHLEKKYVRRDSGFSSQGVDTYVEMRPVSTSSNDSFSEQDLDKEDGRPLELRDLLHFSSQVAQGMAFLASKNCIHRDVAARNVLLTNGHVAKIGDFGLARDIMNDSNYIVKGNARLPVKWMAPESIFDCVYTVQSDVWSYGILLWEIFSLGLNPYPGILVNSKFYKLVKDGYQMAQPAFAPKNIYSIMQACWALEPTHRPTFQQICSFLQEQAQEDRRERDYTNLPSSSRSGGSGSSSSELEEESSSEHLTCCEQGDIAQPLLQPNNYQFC", "test": "Kinase HotSpot cell-free enzyme assay, FMS kinase", "format": "biochemical", "conditions": "single-dose concentration of 1 μM"}, "[2]": {"tested_on": "bone marrow-derived macrophages (BMDM)", "test": "BMDM assay, CSF-1-induced BMDM growth (Alamar Blue)", "format": "cell-based, C57BL6 murine", "conditions": "5 days, triplicate assay, mean ± SEM, 10-dose from 1 µM, read-out: IC50 against bone marrow-derived macrophages (BMDM)", "method": "The macrophages were isolated from C57BL6 murine bone marrow using Miltenyi Biotec MACS beads (CD11b). The macrophages (30,000 cells/well) were cultured in RPMI 1640 medium containing 10% foetal bovine serum, 2-mercaptoethanol ([…]), and the test compound for 1 h at 37 °C in the presence of 5% CO2. CSF-1 (20 ng/mL) was then added and the system was incubated for 5 days. Each compound was tested in a 10-dose testing mode, threefold serial dilution starting with 1 µM concentration. The inhibitory effects of the tested compounds against CSF-1-induced BMDM growth were determined using Alamar Blue^TM (Serotec).\nFMS over-expression contributes to inflammatory disorders as explained in the Introduction section. So compounds 1r and KIST101029 were tested for their ability to inhibit CSF-1-induced BMDM growth. […] So, the compound 1r can be a promising candidate for future development of anti-arthritic drugs.\nEach compound was tested in a 10-dose testing mode, threefold serial dilution starting with 1 µM concentration."}, "Aurora A": {"biological_target": "T2, Aurora A (Homo sapiens, UniProt O14965)", "T2 construct": "purchased Reaction Biology Corp. (Kinase HotSpot)", "test": "Kinase HotSpot 40-kinase panel", "format": "biochemical", "conditions": "single-dose concentration of 1 μM", "method": "(§2) Reaction Biology Corp. Kinase HotSpot^SM service [http://www.reactionbiology.com] was utilised for screening of the target compounds as per the protocol reported in the literature.\n(§3) Compound 1r was tested against a panel of 40 kinases including FMS. […] Its inhibition percentages against FLT3 (D835Y) and c-MET kinases were 42% and 40%, respectively. So its IC50 values against both of them will be in micromolar scale. […] The inhibition percentages exerted by compound 1r against the other 37 tested kinases were less than 28%."}, "mTOR": {"biological_target": "T3, mTOR (Homo sapiens, UniProt P42345)", "T3 construct": "purchased Reaction Biology Corp. (Kinase HotSpot)", "test": "Kinase HotSpot 40-kinase panel", "format": "biochemical", "conditions": "single-dose concentration of 1 μM", "method": "as §2, §3"}, "RET": {"biological_target": "T4, RET (Homo sapiens, UniProt P07949)", "T4 construct": "purchased Reaction Biology Corp. (Kinase HotSpot)", "test": "Kinase HotSpot 40-kinase panel", "format": "biochemical", "conditions": "single-dose concentration of 1 μM", "method": "as §2, §3"}, "FGFR1": {"biological_target": "T5, FGFR1 (Homo sapiens, UniProt P11362)", "T5 construct": "purchased Reaction Biology Corp. (Kinase HotSpot)", "T5 sequence (P11362 22-822)": "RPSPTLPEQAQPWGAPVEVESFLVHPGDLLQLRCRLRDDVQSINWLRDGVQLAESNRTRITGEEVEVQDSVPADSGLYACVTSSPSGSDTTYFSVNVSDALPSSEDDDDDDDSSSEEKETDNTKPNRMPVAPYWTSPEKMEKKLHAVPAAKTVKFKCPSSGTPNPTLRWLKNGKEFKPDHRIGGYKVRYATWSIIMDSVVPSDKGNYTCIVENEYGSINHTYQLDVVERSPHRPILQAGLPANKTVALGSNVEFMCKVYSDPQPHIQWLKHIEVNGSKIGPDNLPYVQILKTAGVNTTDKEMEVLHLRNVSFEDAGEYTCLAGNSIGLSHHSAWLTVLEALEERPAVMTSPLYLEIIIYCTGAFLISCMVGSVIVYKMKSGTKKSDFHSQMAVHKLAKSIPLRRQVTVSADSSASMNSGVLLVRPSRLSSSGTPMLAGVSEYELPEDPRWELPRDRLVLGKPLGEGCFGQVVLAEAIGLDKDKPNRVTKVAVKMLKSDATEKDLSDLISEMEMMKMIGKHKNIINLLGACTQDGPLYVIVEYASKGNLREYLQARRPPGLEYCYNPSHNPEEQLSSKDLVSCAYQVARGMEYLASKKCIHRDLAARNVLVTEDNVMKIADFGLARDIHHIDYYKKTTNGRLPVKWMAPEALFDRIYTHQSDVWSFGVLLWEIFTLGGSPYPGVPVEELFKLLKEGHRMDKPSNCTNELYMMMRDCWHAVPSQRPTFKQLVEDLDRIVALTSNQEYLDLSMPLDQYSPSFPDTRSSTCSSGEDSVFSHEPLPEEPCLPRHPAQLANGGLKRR", "test": "Kinase HotSpot 40-kinase panel", "format": "biochemical", "conditions": "single-dose concentration of 1 μM", "method": "as §2, §3"}, "IKKβ": {"biological_target": "T6, IKKβ (Homo sapiens, UniProt O14920)", "T6 construct": "purchased Reaction Biology Corp. (Kinase HotSpot)", "test": "Kinase HotSpot 40-kinase panel", "format": "biochemical", "conditions": "single-dose concentration of 1 μM", "method": "as §2, §3"}, "HIPK2": {"biological_target": "T7, HIPK2 (Homo sapiens, UniProt Q9H2X6)", "T7 construct": "purchased Reaction Biology Corp. (Kinase HotSpot)", "test": "Kinase HotSpot 40-kinase panel", "format": "biochemical", "conditions": "single-dose concentration of 1 μM", "method": "as §2, §3"}, "JNK1α1": {"biological_target": "T8, JNK1α1 (Homo sapiens, UniProt P45983)", "T8 construct": "purchased Reaction Biology Corp. (Kinase HotSpot)", "T8 sequence (P45983 1-384 isoform P45983-2)": "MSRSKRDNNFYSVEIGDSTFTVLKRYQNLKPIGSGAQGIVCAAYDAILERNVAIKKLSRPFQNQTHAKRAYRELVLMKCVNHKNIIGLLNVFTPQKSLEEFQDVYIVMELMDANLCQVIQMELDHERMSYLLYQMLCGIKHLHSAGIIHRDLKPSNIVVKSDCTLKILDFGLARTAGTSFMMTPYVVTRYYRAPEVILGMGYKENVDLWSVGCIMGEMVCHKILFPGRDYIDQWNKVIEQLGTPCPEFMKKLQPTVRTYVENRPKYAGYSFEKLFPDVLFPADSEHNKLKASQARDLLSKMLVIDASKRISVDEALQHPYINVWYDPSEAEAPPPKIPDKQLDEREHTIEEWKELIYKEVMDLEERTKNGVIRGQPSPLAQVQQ", "test": "Kinase HotSpot 40-kinase panel", "format": "biochemical", "conditions": "single-dose concentration of 1 μM", "method": "as §2, §3"}, "KDR": {"biological_target": "T9, KDR (Homo sapiens, UniProt P35968)", "T9 construct": "purchased Reaction Biology Corp. (Kinase HotSpot)", "T9 sequence (P35968 20-1356)": "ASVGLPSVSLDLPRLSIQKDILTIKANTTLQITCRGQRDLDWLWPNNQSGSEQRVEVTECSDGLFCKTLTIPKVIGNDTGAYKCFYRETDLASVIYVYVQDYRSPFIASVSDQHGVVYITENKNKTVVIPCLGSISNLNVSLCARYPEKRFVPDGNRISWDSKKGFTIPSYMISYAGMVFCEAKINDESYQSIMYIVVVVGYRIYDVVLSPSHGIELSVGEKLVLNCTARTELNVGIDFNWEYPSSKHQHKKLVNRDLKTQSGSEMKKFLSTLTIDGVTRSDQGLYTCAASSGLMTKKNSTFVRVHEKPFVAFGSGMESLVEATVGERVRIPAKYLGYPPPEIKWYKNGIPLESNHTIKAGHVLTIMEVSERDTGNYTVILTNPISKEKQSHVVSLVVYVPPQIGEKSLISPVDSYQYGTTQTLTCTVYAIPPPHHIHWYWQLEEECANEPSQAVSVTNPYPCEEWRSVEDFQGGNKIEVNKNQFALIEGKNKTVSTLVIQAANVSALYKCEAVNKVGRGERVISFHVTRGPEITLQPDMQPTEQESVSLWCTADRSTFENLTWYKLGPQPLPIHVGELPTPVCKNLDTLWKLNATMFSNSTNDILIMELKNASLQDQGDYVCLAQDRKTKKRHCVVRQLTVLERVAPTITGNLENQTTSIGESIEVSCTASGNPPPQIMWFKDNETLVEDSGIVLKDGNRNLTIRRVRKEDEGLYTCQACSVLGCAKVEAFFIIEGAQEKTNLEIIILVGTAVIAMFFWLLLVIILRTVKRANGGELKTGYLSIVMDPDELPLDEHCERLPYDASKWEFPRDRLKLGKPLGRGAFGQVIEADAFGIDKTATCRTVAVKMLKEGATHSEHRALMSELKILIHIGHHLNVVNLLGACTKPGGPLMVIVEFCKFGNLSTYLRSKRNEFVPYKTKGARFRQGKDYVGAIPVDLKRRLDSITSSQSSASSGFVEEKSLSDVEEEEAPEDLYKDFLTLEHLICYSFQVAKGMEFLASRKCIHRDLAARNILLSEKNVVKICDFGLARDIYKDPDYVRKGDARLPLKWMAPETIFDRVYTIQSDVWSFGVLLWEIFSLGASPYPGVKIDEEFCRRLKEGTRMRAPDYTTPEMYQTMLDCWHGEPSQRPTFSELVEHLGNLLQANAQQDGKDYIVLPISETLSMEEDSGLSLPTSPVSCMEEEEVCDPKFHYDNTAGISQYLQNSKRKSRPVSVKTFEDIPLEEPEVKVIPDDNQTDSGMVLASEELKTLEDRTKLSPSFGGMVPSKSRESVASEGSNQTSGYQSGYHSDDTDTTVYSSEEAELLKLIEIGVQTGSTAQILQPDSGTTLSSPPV", "test": "Kinase HotSpot 40-kinase panel", "format": "biochemical", "conditions": "single-dose concentration of 1 μM", "method": "as §2, §3"}, "c-SRC": {"biological_target": "T10, c-SRC (Homo sapiens, UniProt P12931)", "T10 construct": "purchased Reaction Biology Corp. (Kinase HotSpot)", "test": "Kinase HotSpot 40-kinase panel", "format": "biochemical", "conditions": "single-dose concentration of 1 μM", "method": "as §2, §3"}, "CDK2/cyclinE": {"biological_target": "T11, CDK2/cyclinE (Homo sapiens, UniProt P24941)", "T11 construct": "purchased Reaction Biology Corp. (Kinase HotSpot)", "test": "Kinase HotSpot 40-kinase panel", "format": "biochemical", "conditions": "single-dose concentration of 1 μM", "method": "as §2, §3"}, "CDK5/p25": {"biological_target": "T12, CDK5/p25 (Homo sapiens, UniProt Q00535)", "T12 construct": "purchased Reaction Biology Corp. (Kinase HotSpot)", "test": "Kinase HotSpot 40-kinase panel", "format": "biochemical", "conditions": "single-dose concentration of 1 μM", "method": "as §2, §3"}, "PAK2": {"biological_target": "T13, PAK2 (Homo sapiens, UniProt Q13177)", "T13 construct": "purchased Reaction Biology Corp. (Kinase HotSpot)", "test": "Kinase HotSpot 40-kinase panel", "format": "biochemical", "conditions": "single-dose concentration of 1 μM", "method": "as §2, §3"}, "FLT3 (D835Y)": {"biological_target": "T14, FLT3 (D835Y) (Homo sapiens, UniProt P36888, D835Y)", "T14 construct": "purchased Reaction Biology Corp. (Kinase HotSpot)", "test": "Kinase HotSpot 40-kinase panel", "format": "biochemical", "conditions": "single-dose concentration of 1 μM", "method": "as §2, §3"}, "IGF-1R": {"biological_target": "T15, IGF-1R (Homo sapiens, UniProt P08069)", "T15 construct": "purchased Reaction Biology Corp. (Kinase HotSpot)", "T15 sequence (P08069 31-1367)": "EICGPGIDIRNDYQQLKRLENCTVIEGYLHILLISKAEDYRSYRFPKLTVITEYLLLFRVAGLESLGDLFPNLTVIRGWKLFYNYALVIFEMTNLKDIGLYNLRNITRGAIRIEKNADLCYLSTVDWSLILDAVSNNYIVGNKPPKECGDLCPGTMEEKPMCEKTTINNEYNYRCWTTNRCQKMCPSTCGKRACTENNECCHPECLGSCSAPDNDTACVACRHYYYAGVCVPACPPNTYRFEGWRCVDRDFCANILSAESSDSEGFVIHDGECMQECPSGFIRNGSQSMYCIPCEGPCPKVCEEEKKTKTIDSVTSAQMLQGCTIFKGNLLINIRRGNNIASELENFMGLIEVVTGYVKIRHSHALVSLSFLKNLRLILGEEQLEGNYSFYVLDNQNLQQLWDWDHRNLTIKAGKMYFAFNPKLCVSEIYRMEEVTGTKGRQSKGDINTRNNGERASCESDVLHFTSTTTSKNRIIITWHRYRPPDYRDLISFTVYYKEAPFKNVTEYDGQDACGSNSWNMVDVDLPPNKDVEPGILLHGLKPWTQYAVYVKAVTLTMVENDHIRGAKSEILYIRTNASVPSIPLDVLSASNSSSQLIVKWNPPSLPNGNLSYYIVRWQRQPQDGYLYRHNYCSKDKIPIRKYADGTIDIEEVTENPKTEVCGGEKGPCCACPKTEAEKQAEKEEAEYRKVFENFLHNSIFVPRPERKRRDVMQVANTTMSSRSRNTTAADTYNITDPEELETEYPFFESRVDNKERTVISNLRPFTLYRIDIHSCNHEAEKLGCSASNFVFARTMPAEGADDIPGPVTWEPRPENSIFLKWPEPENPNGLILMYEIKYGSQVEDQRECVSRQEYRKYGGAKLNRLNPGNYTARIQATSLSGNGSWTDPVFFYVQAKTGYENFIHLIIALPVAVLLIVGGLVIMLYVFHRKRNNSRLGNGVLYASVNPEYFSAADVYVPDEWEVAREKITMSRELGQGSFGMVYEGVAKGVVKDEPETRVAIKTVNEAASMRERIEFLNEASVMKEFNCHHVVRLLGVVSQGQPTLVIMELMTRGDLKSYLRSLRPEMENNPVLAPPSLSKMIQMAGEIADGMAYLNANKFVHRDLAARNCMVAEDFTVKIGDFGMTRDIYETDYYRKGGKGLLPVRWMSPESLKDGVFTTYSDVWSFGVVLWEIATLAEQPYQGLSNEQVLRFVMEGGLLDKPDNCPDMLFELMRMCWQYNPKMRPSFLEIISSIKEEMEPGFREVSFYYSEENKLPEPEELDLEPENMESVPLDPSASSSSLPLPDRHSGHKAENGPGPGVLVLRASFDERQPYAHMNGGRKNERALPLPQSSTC", "test": "Kinase HotSpot 40-kinase panel", "format": "biochemical", "conditions": "single-dose concentration of 1 μM", "method": "as §2, §3"}, "IR": {"biological_target": "T16, IR (Homo sapiens, UniProt P06213)", "T16 construct": "purchased Reaction Biology Corp. (Kinase HotSpot)", "test": "Kinase HotSpot 40-kinase panel", "format": "biochemical", "conditions": "single-dose concentration of 1 μM", "method": "as §2, §3"}, "[3]": {"tested_on": "panel of six ovarian, two prostate, and five breast cancer cell lines", "test": "NCI antiproliferative screening, whole panel", "format": "cell-based", "conditions": "read-out: IC50 values, range over the cancer cell line panel", "method": "Compounds 1r and KIST101029 were tested at the National Cancer Institute (NCI, Bethesda, MD) following their standard protocol [https://dtp.cancer.gov/discovery_development/nci-60/methodology.htm].\nas §1"}, "FMS kinase [4]": {"biological_target": "T1, FMS kinase", "test": "Kinase HotSpot cell-free enzyme assay, FMS kinase", "format": "biochemical", "method": "as §2\nCompounds 1a–r were tested in a 10-dose testing mode starting with 81 µM, threefold serial dilutions, against FMS kinase in a cell-free enzyme assay. […] This can be due to occupancy of a hydrophobic pocket with that additional benzoyl moiety and/or formation of additional hydrogen bond by the carbonyl oxygen."}, "[5]": {"tested_on": "panel of 40 kinases including FMS", "test": "Kinase HotSpot 40-kinase panel, summary over the other kinases", "format": "biochemical", "conditions": "1 µM; kinases other than FMS, FLT3 (D835Y) and c-MET", "method": "as §2, §3"}}, "note": "Read-outs that look alike come from different tables or passages of the source."}
{"smiles": "O=C(Nc1cccc(-n2ccc3c(NC(=O)c4ccccc4)nccc32)c1)c1ccc(N2CCOCC2)c(C(F)(F)F)c1", "note": "[KIST101029, reference compound]", "values": [{"measurement": "IC50", "setting": "HS 27 fibroblasts; Homo sapiens, HS27", "result": 300, "unit": "nM"}, {"measurement": "inhibition at 1 µM", "setting": "FMS kinase [1]", "result": 90, "unit": "%"}, {"measurement": "IC50", "setting": "[2]; Mus musculus, 120 h", "result": "195 ± 6", "unit": "nM"}, {"measurement": "inhibition at 1 µM", "setting": "Aurora A", "result": 21, "unit": "%"}, {"measurement": "inhibition at 1 µM", "setting": "mTOR", "result": -10, "unit": "%"}, {"measurement": "inhibition at 1 µM", "setting": "RET", "result": 57, "unit": "%"}, {"measurement": "inhibition at 1 µM", "setting": "FGFR1", "result": 6, "unit": "%"}, {"measurement": "inhibition at 1 µM", "setting": "IKKβ", "result": 23, "unit": "%"}, {"measurement": "inhibition at 1 µM", "setting": "HIPK2", "result": 9, "unit": "%"}, {"measurement": "inhibition at 1 µM", "setting": "JNK1α1", "result": -1, "unit": "%"}, {"measurement": "inhibition at 1 µM", "setting": "KDR", "result": 71, "unit": "%"}, {"measurement": "inhibition at 1 µM", "setting": "c-SRC", "result": 10, "unit": "%"}, {"measurement": "inhibition at 1 µM", "setting": "CDK2/cyclinE", "result": -12, "unit": "%"}, {"measurement": "inhibition at 1 µM", "setting": "CDK5/p25", "result": 8, "unit": "%"}, {"measurement": "inhibition at 1 µM", "setting": "PAK2", "result": 2, "unit": "%"}, {"measurement": "inhibition at 1 µM", "setting": "FLT3 (D835Y)", "result": 16, "unit": "%"}, {"measurement": "inhibition at 1 µM", "setting": "IGF-1R", "result": 10, "unit": "%"}, {"measurement": "inhibition at 1 µM", "setting": "IR", "result": 2, "unit": "%"}]}
{"smiles": "Nc1nccc2c1ccn2-c1cccc(NC(=O)c2ccc(N3CCOCC3)c(C(F)(F)F)c2)c1", "note": "[Compound 1r]", "values": [{"measurement": "IC50", "setting": "[3]", "result": "150 to 1780", "unit": "nM"}, {"measurement": "IC50", "setting": "HS 27 fibroblasts", "result": 5720, "unit": "nM"}, {"measurement": "IC50", "setting": "FMS kinase [4]; 10-dose duplicate assay, mean ± SEM, starting with 81 µM, threefold serial dilution, read-out: IC50 against FMS kinase", "result": "30 ± 20", "unit": "nM"}, {"measurement": "Potency against FMS kinase relative to KIST101029", "setting": "FMS kinase [4]; ratio of IC50 values, more potent than lead compound KIST101029", "result": 3.2, "unit": "times"}, {"measurement": "% Inhibition", "setting": "FMS kinase [1]", "result": 81, "unit": "%"}, {"measurement": "IC50", "setting": "[2]", "result": "84 ± 3", "unit": "nM"}, {"measurement": "Inhibition percentages against the other 37 tested kinases", "setting": "[5]", "result": "less than 28%"}, {"measurement": "% Inhibition", "setting": "Aurora A", "result": "−2", "unit": "%"}, {"measurement": "% Inhibition", "setting": "mTOR", "result": "−2", "unit": "%"}, {"measurement": "% Inhibition", "setting": "RET", "result": 27, "unit": "%"}, {"measurement": "% Inhibition", "setting": "FGFR1", "result": "−3", "unit": "%"}, {"measurement": "% Inhibition", "setting": "IKKβ", "result": 1, "unit": "%"}, {"measurement": "% Inhibition", "setting": "HIPK2", "result": 6, "unit": "%"}, {"measurement": "% Inhibition", "setting": "JNK1α1", "result": "−5", "unit": "%"}, {"measurement": "% Inhibition", "setting": "KDR", "result": 1, "unit": "%"}, {"measurement": "% Inhibition", "setting": "c-SRC", "result": "−4", "unit": "%"}, {"measurement": "% Inhibition", "setting": "CDK2/cyclinE", "result": "−1", "unit": "%"}, {"measurement": "% Inhibition", "setting": "CDK5/p25", "result": "−5", "unit": "%"}, {"measurement": "% Inhibition", "setting": "PAK2", "result": "−9", "unit": "%"}, {"measurement": "% Inhibition", "setting": "FLT3 (D835Y)", "result": 42, "unit": "%"}, {"measurement": "% Inhibition", "setting": "IGF-1R", "result": 4, "unit": "%"}, {"measurement": "% Inhibition", "setting": "IR", "result": 5, "unit": "%"}]}
